Data as given in US6835735B2, “4-(phenylamino)-[1,4]dioxano[2,3-g]quinazoline derivatives and process for preparing the same” (Korea Institute of Science and Technology, priority 2001, dated 2004).
≈ marks a conversion by molar mass, not a printed value. Where a name gives a salt, the structure may show the parent alone.

Experiments:
[1] = biological target: T1, purified human EGFR kinase (Homo sapiens, UniProt P00533); test: Inhibition of EGFR tyrosine kinase (P32-ATP, biotin-conjugated substrate); assay type: biochemical; conditions: purified human EGFR kinase, 50 μM ATP, 30° C., 10 min
T1 construct: purchased Promega
Description: The test was accomplished in a 20 μl reaction volume using 0.1 unit per reaction of purified human EGFR kinase (Promega, U.S.A.) and 50 μM biotin-conjugated substrate for tyrosine kinase (Promega, U.S.A.) and, 50 μM P^32-γ-ATP (0.2 μCi) and 20 mM Tris-HCl (pH 7.5) were employed as an ATP and a reaction solution, respectively. The test was carried out at 30° C. for 10 min, and terminated by the addition of 10 μl of 30% phosphate solution. The half of the reaction product was spotted onto avidin-layered PVDF membrane, which was then washed with 20 mM Tris-HCl (pH 8.0) and 0.2N NaCl aqueous solution for more than 2 hours.

[2] = tested on: A431 cancer cell; test: Inhibition of cancer cell growth (sulforhodamine B); assay type: cell-based; conditions: for inhibitory effect of cancer cell growth compared with standard material DP153035: A431, comparison drawn from Table 3; for A431 GI50 / GI50: A431 cells, grown 2 days with compound, SRB staining; for GI50: Homo sapiens, A-431, 48 h
Description: A431 cancer cell was cultivated at 37° C. under an environment of 5% (v/v) CO2 employing RPMI 1640 medium containing 10% (v/v) fetal calf serum. […] The above cells was grown again for 2 days, and then, fixed with formalin solution (Sigma Chem. Co., U.S.A.) and washed with water. After that, the cells was dried in the atmosphere, stained with 0.1% (v/v) sulforhodamine B solution (Sigma Chem. Co., U.S.A.) for 30 min and wash with 1% (v/v) acetic acid aqueous solution. Then, dye attached to cells was extracted with 0.1M Tris-HCl (pH 8.0) and the absorbances of the remaining culture were measured at 520 nm by the aid of microplate reader. And then, the concentration of the compound by which cell growth is 50% inhibited was represented as GI50(s: Table 3).

[3] = Measurement of the solubility of compounds in water (HPLC calibration curve); assay type: physicochemical; conditions: supersaturated in 1 ml of water, centrifuged, supernatant by HPLC; for solubility thermodynamic: read-out: Solubility (mg/10 ml of water)
Description: That is, 1 mg of each of the above compounds was completely dissolved in 1 ml of DMSO, which was then subjected to HPLC employing C18 resin, and the peak area of chromatogram was calculated. And then, 1 mg of each of the same compound was dissolved in 10 ml of DMSO, which was then subjected to the same HPLC as the above to obtain a chromatogram, and the peak area was calculated therefrom. A solubility calibration curve was prepared by employing the above two data, and a linear function was deduced from that to complete a calibration curve (X axis: area, Y axis: logarithm value of concentration).
Each of the same compounds was supersaturated in 1 ml of water, which was then centrifuged at 14,000 rpm for 1 min. The precipitate was separated from the supernatant which was then subjected to the same HPLC as the above to obtain a chromatogram, and the peak area was calculated therefrom. The obtained value was substituted to the above calibration curve to measure the solubility by mg/10 ml of water (see: Table 1).

T1 sequence (P00533 25-1210): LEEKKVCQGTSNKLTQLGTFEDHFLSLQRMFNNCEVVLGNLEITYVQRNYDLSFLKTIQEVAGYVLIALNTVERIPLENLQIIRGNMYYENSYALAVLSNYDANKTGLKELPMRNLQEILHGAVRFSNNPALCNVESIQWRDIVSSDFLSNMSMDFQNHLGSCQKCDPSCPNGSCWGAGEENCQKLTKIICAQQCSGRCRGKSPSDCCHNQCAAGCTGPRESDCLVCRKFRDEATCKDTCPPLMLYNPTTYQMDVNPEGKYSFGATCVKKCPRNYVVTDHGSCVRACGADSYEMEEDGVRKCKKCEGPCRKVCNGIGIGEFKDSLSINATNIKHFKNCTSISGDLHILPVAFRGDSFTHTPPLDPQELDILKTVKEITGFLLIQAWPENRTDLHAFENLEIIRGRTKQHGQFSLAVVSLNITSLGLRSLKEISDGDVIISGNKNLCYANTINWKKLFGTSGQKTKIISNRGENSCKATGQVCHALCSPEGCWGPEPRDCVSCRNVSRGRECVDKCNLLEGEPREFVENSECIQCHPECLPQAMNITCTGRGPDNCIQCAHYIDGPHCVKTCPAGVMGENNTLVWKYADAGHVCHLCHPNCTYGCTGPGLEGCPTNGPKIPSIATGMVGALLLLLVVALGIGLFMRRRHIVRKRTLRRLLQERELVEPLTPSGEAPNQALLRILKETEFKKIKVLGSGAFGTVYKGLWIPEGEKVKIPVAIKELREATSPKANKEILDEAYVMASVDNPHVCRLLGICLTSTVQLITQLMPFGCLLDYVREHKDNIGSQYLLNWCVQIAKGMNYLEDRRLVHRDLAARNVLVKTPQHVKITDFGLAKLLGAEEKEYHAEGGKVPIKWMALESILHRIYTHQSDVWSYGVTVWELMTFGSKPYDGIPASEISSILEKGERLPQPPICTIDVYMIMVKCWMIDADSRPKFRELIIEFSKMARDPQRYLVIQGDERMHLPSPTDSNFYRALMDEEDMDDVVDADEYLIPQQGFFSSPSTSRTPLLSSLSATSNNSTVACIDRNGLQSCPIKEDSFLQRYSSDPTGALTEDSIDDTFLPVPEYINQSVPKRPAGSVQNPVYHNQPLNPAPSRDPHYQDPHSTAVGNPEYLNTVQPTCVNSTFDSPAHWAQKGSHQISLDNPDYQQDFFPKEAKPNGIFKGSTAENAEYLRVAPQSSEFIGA

With `OCCNCC1COc2cc3ncnc(Nc4cccc(Br)c4)c3cc2O1` (stereo not drawn) [Example 35, 2-[4-(3-bromophenylamine)-[1,4]dioxano[2,3-g]quinazolin-7-ylmethyl]amino ethanol hydrochloride] the IC50 [1] was 49.9 nM, the “inhibitory effect of cancer cell growth compared with standard material DP153035” value [2] was “better inhibitory effect of cancer cell growth than the standard material” and the “A431 GI50” value ([2]; hydrochloride) was 0.95 µg/mL. The “Solubility (mg/10 ml of water)” value [3] was >>1,000 mg/10 ml of water.

In the case of `C#Cc1cccc(Nc2ncnc3cc4c(cc23)O[C@H](COC)[C@@H](COC)O4)c1` [Example 48, (7,8-bismethoxymethyl[1,4]dioxano[2,3-g]quinazolin-4-yl)-[3-(ethynyl)phenyl]-amine], the IC50 [1] is reported as > 255 nM and the GI50 [2] is reported as 1.89 µg/mL (≈ 4.83 µM).

With `COC[C@H]1Oc2cc3ncnc(Nc4cccc(Cl)c4)c3cc2O[C@@H]1COC` [Example 46, (7,8-bismethoxymethyl[1,4]dioxano[2,3-g]quinazolin-4-yl)-(3-chlorophenyl)-amine] the IC50 [1] was > 249 nM and the GI50 [2] was 2.37 µg/mL (≈ 5.9 µM).

For `COCC1COc2cc3ncnc(Nc4ccc(F)c(Cl)c4)c3cc2O1` (stereo not drawn) [Example 17, (3-chloro-4-fluorophenyl)-(7-methoxymethyl-[1,4]-dioxano[2,3-g]quinazolin-4-yl)-amine], the IC50 [1] was 97.7 nM, the “inhibitory effect of cancer cell growth compared with standard material DP153035” value [2] was “better inhibitory effect of cancer cell growth than the standard material” and the GI50 [2] was 0.6 µg/mL (≈ 1.6 µM).

With `CC(C)[C@H](CO)NCC1COc2cc3ncnc(Nc4cccc(Br)c4)c3cc2O1` (stereo partly drawn) [Example 29] the IC50 [1] was > 211 nM and the GI50 [2] was 1.9 µg/mL (≈ 4.01 µM).

For `OCCN(CCO)CC1COc2cc3ncnc(Nc4cccc(Br)c4)c3cc2O1` (stereo not drawn) [Example 33, N-[4-(3-bromophenylamine)-[1,4]dioxano[2,3-g]quinazolin-7-ylmethyl]-N-(2-hydroxyethyl)]-2-ethanolamine hydrochloride], the IC50 [1] was 44.9 nM, the “inhibitory effect of cancer cell growth compared with standard material DP153035” value [2] was “better inhibitory effect of cancer cell growth than the standard material” and the “A431 GI50” value ([2]; hydrochloride) was 0.67 µg/mL. For the same molecule, the “Solubility (mg/10 ml of water)” value [3] was >>1,000 mg/10 ml of water.

In the case of `COCC1COc2cc3ncnc(Nc4cc(C)cc(C)c4)c3cc2O1` (stereo not drawn) [Example 15, (3,5-dimethylphenyl)-(7-methoxymethyl-[1,4]-dioxano[2,3-g]quinazolin-4-yl)-amine], the IC50 [1] is reported as > 285 nM, the “inhibitory effect of cancer cell growth compared with standard material DP153035” value [2] is reported as “better inhibitory effect of cancer cell growth than the standard material” and the GI50 [2] is reported as 0.06 µg/mL (≈ 0.171 µM).

With `Ic1cccc(Nc2ncnc3cc4c(cc23)OC(CN2CCOCC2)CO4)c1` (stereo not drawn) [Example 22, (3-iodophenyl)-[7-(morpholine-4-ylmethyl)-[1,4]dioxano[2,3-g]quinazolin-4-yl]-amine] the IC50 [1] was 25.1 nM, the “inhibitory effect of cancer cell growth compared with standard material DP153035” value [2] was “better inhibitory effect of cancer cell growth than the standard material” and the GI50 [2] was 0.38 µg/mL (≈ 0.753 µM).

For `CN1CCN(CC2COc3cc4ncnc(Nc5cccc(I)c5)c4cc3O2)CC1.Cl` (stereo not drawn) [Example 36, (3-iodophenyl)-[7-(4-methylpiperazin-1-yl)methyl-[1,4]dioxano[2,3-g]quinazolin-4-yl]amine hydrochloride], the “Solubility (mg/10 ml of water)” value [3] was >>1,000 mg/10 ml of water.

In the case of `CN1CCN(CC2COc3cc4ncnc(Nc5cccc(Br)c5)c4cc3O2)CC1` (stereo not drawn) [Example 37, (3-bromophenyl)-[7-(4-methylpiperazin-1-yl)methyl-[1,4]dioxano[2,3-g]quinazolin-4-yl]amine hydrochloride], the IC50 [1] is reported as 123 nM and the “A431 GI50” value ([2]; hydrochloride) is reported as 0.38 µg/mL.

For `CN1CCN(CC2COc3cc4ncnc(Nc5cccc(Br)c5)c4cc3O2)CC1` (stereo not drawn) [Example 28, (3-bromophenyl)-[7-(4-methylpiperazin-1-yl)methyl-[1,4]dioxano[2,3-g]quinazolin-4-yl]amine], the IC50 [1] was 8.91 nM, the “inhibitory effect of cancer cell growth compared with standard material DP153035” value [2] was “better inhibitory effect of cancer cell growth than the standard material” and the GI50 [2] was 0.22 µg/mL (≈ 0.468 µM).

`COCC1COc2cc3ncnc(Nc4ccc(C)c(Cl)c4)c3cc2O1` (stereo not drawn) [Example 16, (3-chloro-4-methylphenyl)-(7-methoxymethyl-[1,4]-dioxano[2,3-g]quinazolin-4-yl)-amine] gave a solubility thermodynamic [3] of 457 µg/mL (≈ 1230 µM).

For `Brc1cccc(Nc2ncnc3cc4c(cc23)OC(CN2CCOCC2)CO4)c1` (stereo not drawn) [Example 31, (3-bromophenyl)-[7-(morpholin-4-ylmethyl)-[1,4]dioxano[2,3-g]quinazolin-4-yl]amine hydrochloride], the IC50 [1] was 101 nM, the “inhibitory effect of cancer cell growth compared with standard material DP153035” value [2] was “better inhibitory effect of cancer cell growth than the standard material” and the “A431 GI50” value ([2]; hydrochloride) was 0.19 µg/mL. For the same molecule, the “Solubility (mg/10 ml of water)” value [3] was >>1,000 mg/10 ml of water.

For `COCC1COc2cc3ncnc(Nc4cc(Cl)cc(Cl)c4)c3cc2O1` (stereo not drawn) [Example 13, (3,5-dichlorophenyl)-(7-methoxymethyl-[1,4]-dioxano[2,3-g]quinazolin-4-yl)-amine], the IC50 [1] was 34.7 nM, the “inhibitory effect of cancer cell growth compared with standard material DP153035” value [2] was “better inhibitory effect of cancer cell growth than the standard material” and the GI50 [2] was 0.21 µg/mL (≈ 0.535 µM). The solubility thermodynamic [3] was 8 µg/mL (≈ 20.4 µM).

For `Cl.Ic1cccc(Nc2ncnc3cc4c(cc23)OCC(CN2CCOCC2)O4)c1` (stereo not drawn) [Example 30], the “Solubility (mg/10 ml of water)” value [3] was >>1,000 mg/10 ml of water.

With `Cl.OCCNCC1COc2cc3ncnc(Nc4cccc(I)c4)c3cc2O1` (stereo not drawn) [Example 34, 2-[4-(3-iodophenylamine)-[1,4]dioxano[2,3-g]quinazolin-7-ylmethyl]amino ethanol hydrochloride] the “Solubility (mg/10 ml of water)” value [3] was >>1,000 mg/10 ml of water.

`Brc1cccc(Nc2ncnc3cc4c(cc23)OC(CN2CCOCC2)CO4)c1` (stereo not drawn) [Example 23, (3-bromophenyl)-[7-(morpholine-4-ylmethyl)-[1,4]dioxano[2,3-g]quinazolin-4-yl]-amine] gave an IC50 [1] of 63.1 nM and a GI50 [2] of 0.13 µg/mL (≈ 0.284 µM).

For `COC[C@H]1Oc2cc3ncnc(Nc4cccc(I)c4)c3cc2O[C@@H]1COC` [Example 45, (7,8-bismethoxymethyl[1,4]dioxano[2,3-g]quinazolin-4-yl)-(3-iodophenyl)amine], the GI50 [2] was 1.59 µg/mL (≈ 3.22 µM).

For `COCC1COc2cc3ncnc(Nc4cccc(C(F)(F)F)c4)c3cc2O1` (stereo not drawn) [Example 12, (3-trifluoromethylphenyl)-(7-methoxymethyl-[1,4]-dioxano[2,3-g]quinazolin-4-yl)-amine], the IC50 [1] was > 256 nM, the “inhibitory effect of cancer cell growth compared with standard material DP153035” value [2] was “better inhibitory effect of cancer cell growth than the standard material” and the GI50 [2] was 0.43 µg/mL (≈ 1.1 µM). For the same molecule, the solubility thermodynamic [3] was 74 µg/mL (≈ 189 µM).

In the case of `COCC1COc2cc3ncnc(Nc4cccc(Br)c4)c3cc2O1` (stereo not drawn) [Example 10, (3-bromophenyl)-(7-methoxymethyl-[1,4]-dioxano[2,3-g]quinazolin-4-yl)-amine], the IC50 [1] is reported as 35.5 nM, the “inhibitory effect of cancer cell growth compared with standard material DP153035” value [2] is reported as “better inhibitory effect of cancer cell growth than the standard material” and the GI50 [2] is reported as 0.24 µg/mL (≈ 0.597 µM). The solubility thermodynamic [3] was 241 µg/mL (≈ 599 µM).

With `OCCN(CCO)CC1COc2cc3ncnc(Nc4cccc(Br)c4)c3cc2O1` (stereo not drawn) [Example 25] the IC50 [1] was 100 nM and the GI50 [2] was 0.61 µg/mL (≈ 1.28 µM).

Work on `COC[C@H]1Oc2cc3ncnc(Nc4cccc(Br)c4)c3cc2O[C@@H]1COC` [Example 44, (7,8-bismethoxymethyl[1,4]dioxano[2,3-g]quinazolin-4-yl)-(3-bromophenyl)-amine] yielded an IC50 [1] of 74.1 nM and a GI50 [2] of 2.91 µg/mL (≈ 6.52 µM).

With `OCCNCC1COc2cc3ncnc(Nc4cccc(Br)c4)c3cc2O1` (stereo not drawn) [Example 27, 2-[4-(3-bromophenylamine)-[1,4]dioxano[2,3-g]quinazolin-7-ylmethyl]amino-ethanol] the IC50 [1] was 28.2 nM and the “A431 GI50” value [2] was 0.22 µg/mL.
